# Measurements published in patent US12227482B2, “Compounds and compositions for the treatment of cancer” (The Regents of the University of California, priority 2016, dated 2025).
# Columns and labels:
# Type in all cases: cell-based
# LOX cells = assay: Cell viability (CellTiter-Glo ATP content) in LOX cells; settings: LOX, 72 h, 72 hours treatment, cell survival by CellTiter-Glo, 2% fetal bovine serum
# Method: (§1) Logarithmically growing A549, LOX and MelJuSo cells (ATCC) were plated in antibiotic-free RPMI medium (Coming) supplemented with 2% fetal bovine serum (Gemini Bio-products) at a density of 5,000 cells per well in clear-bottom 96-well plates. The next day cells were treated (triplicates) with increasing doses of a compound of the present disclosure (dissolved in DMSO) and DMSO vehicle controls (final DMSO concentration of 0.5%) for 72 hours and subsequently assessed for cell viability by measuring ATP content with CellTiter-Glo Luminescent Cell Viability Assay (Promega). Signal intensity was measured on a Glomax™ 96 Microplate Luminometer (Promega) and percent cell survival was calculated based on the reading of vehicle control cells set as 100%.
# A549 cells = assay: Cell viability (CellTiter-Glo ATP content) in A549 cells; settings: Homo sapiens, A549, 72 h, 72 hours treatment, cell survival by CellTiter-Glo, 2% fetal bovine serum
# Method: as §1
# MelJuSo cells = assay: Cell viability (CellTiter-Glo ATP content) in MelJuSo cells; settings: Homo sapiens, MEL-JUSO, 72 hours treatment, cell survival by CellTiter-Glo, 2% fetal bovine serum
# Method: as §1
Compound,IC50 (LOX cells) [µM],IC50 (A549 cells) [µM],IC50 (MelJuSo cells) [µM]
"CCCCC1C(c2ccc(F)cc2)=NN(c2ccccc2)C1(C)C(=O)NCCCC(C)(C)CO (centres unmarked) [Compound 1, 4-butyl-3-(4-fluorophenyl)-N-(5-hydroxy-4,4-dimethylpentyl)-5-methyl-1-phenyl-4,5-dihydro-1H-pyrazole-5-carboxamide]",0.5 to 1,0.5 to 1,0.25 to 0.5
"CCCCC1C(c2ccc(F)cc2)=NN(c2ccccc2)C1(C)C(=O)NCCCCC(C)(C)O (centres unmarked) [Compound 2, 4-butyl-3-(4-fluorophenyl)-N-(5-hydroxy-5-methylhexyl)-5-methyl-1-phenyl-4,5-dihydro-1H-pyrazole-5-carboxamide]",1 to 2,1 to 2,0.5 to 1
"CCCCC1C(c2ccc(F)cc2)=NN(c2ccc(F)cc2F)C1(C)C(=O)NCCCC(C)(C)CO (centres unmarked) [Compound 3, 4-butyl-1-(2,4-difluorophenyl)-3-(4-fluorophenyl)-N-(5-hydroxy-4,4-dimethylpentyl)-5-methyl-4,5-dihydro-1H-pyrazole-5-carboxamide]",0.5 to 1,0.5 to 1,0.5 to 1
"CCCCC1C(c2ccc(F)cc2)=NN(c2ccc(F)cc2F)C1(C)C(=O)NCCCCC(C)(C)O (centres unmarked) [Compound 4, 4-butyl-1-(2,4-difluorophenyl)-3-(4-fluorophenyl)-N-(5-hydroxy-5-methylhexyl)-5-methyl-4,5-dihydro-1H-pyrazole-5-carboxamide]",0.5 to 1,0.5 to 1,0.5 to 1
"CCCCC1C(c2ccc(F)cc2)=NN(c2ccc(F)cc2F)C1(C)C(=O)NCCCOC (centres unmarked) [Compound 5, 4-butyl-1-(2,4-difluorophenyl)-3-(4-fluorophenyl)-N-(3-methoxypropyl)-5-methyl-4,5-dihydro-1H-pyrazole-5-carboxamide]",1 to 2,1 to 2,0.5 to 1
"CCCCC1C(c2ccc(F)cc2)=NN(c2ccc(F)cc2F)C1(C)C(=O)NCCOC (centres unmarked) [Compound 6, 4-butyl-1-(2,4-difluorophenyl)-3-(4-fluorophenyl)-N-(2-methoxyethyl)-5-methyl-4,5-dihydro-1H-pyrazole-5-carboxamide]",0.5 to 1,0.5 to 1,0.5 to 1
"CCCCC1C(c2ccc(F)cc2)=NN(c2cccc(F)c2)C1(C)C(=O)NCCCCC(C)(C)O (centres unmarked) [Compound 7, 4-butyl-1-(3-fluorophenyl)-3-(4-fluorophenyl)-N-(5-hydroxy-5-methylhexyl)-5-methyl-4,5-dihydro-1H-pyrazole-5-carboxamide]",1 to 2,> 2,0.5 to 1
"CCCCC1C(c2ccc(F)cc2)=NN(c2cccc(F)c2)C1(C)C(=O)NCCCOC (centres unmarked) [Compound 8, 4-butyl-1-(3-fluorophenyl)-3-(4-fluorophenyl)-N-(3-methoxypropyl)-5-methyl-4,5-dihydro-1H-pyrazole-5-carboxamide]",> 2,> 2,1 to 2
"CCCCC1C(c2ccc(F)cc2)=NN(c2cc(F)ccc2F)C1(C)C(=O)NCCCCC(C)(C)O (centres unmarked) [Compound 9, 4-butyl-1-(2,5-difluorophenyl)-3-(4-fluorophenyl)-N-(5-hydroxy-5-methylhexyl)-5-methyl-4,5-dihydro-1H-pyrazole-5-carboxamide]",0.5 to 1,1 to 2,0.5 to 1
"CCCCC1C(c2ccc(F)c(F)c2)=NN(c2ccccc2)C1(C)C(=O)NCCCCC(C)(C)O (centres unmarked) [Compound 10, 4-butyl-3-(3,4-difluorophenyl)-N-(5-hydroxy-5-methylhexyl)-5-methyl-1-phenyl-4,5-dihydro-1H-pyrazole-5-carboxamide]",1 to 2,> 2,0.5 to 1
"CCCCC1C(c2ccc(F)cc2)=NN(c2ccc(F)c(Cl)c2)C1(C)C(=O)NCCCCC(C)(C)O (centres unmarked) [Compound 11, 4-butyl-1-(3-chloro-4-fluorophenyl)-3-(4-fluorophenyl)-N-(5-hydroxy-5-methylhexyl)-5-methyl-4,5-dihydro-1H-pyrazole-5-carboxamide]",> 2,> 2,1 to 2
"CCCCC1C(c2ccc(F)cc2)=NN(c2ccc(Cl)cc2)C1(C)C(=O)NCCCC(C)(C)CO (centres unmarked) [Compound 12, 4-butyl-1-(4-chlorophenyl)-3-(4-fluorophenyl)-N-(5-hydroxy-4,4-dimethylpentyl)-5-methyl-4,5-dihydro-1H-pyrazole-5-carboxamide]",1 to 2,> 2,1 to 2
"CCCCC1C(c2ccc(F)cc2)=NN(c2ccc(Cl)cc2)C1(C)C(=O)NCCCOC (centres unmarked) [Compound 13, 4-butyl-1-(4-chlorophenyl)-3-(4-fluorophenyl)-N-(3-methoxypropyl)-5-methyl-4,5-dihydro-1H-pyrazole-5-carboxamide]",> 2,> 2,> 2
"CCCCC1C(c2ccc(F)cc2)=NN(c2ccc(F)cc2)C1(C)C(=O)NCCCOC (centres unmarked) [Compound 14, 4-butyl-1,3-bis(4-fluorophenyl)-N-(3-methoxypropyl)-5-methyl-4,5-dihydro-1H-pyrazole-5-carboxamide]",1 to 2,> 2,1 to 2
"CCCCC1C(c2ccc(F)cc2)=NN(c2ccc(C)cc2)C1(C)C(=O)NCCCC(C)(C)CO (centres unmarked) [Compound 15, 4-butyl-3-(4-fluorophenyl)-N-(5-hydroxy-4,4-dimethylpentyl)-5-methyl-1-p-tolyl-4,5-dihydro-1H-pyrazole-5-carboxamide]",0.25 to 0.5,1 to 2,0.25 to 0.5
"CCCCC1C(c2ccc(F)cc2)=NN(c2ccc(C)cc2)C1(C)C(=O)NCCCOC (centres unmarked) [Compound 16, 4-butyl-3-(4-fluorophenyl)-N-(3-methoxypropyl)-5-methyl-1-p-tolyl-4,5-dihydro-1H-pyrazole-5-carboxamide]",> 2,> 2,0.5 to 1
"CCCCC1C(c2ccc(F)cc2)=NN(c2cccc(Cl)c2)C1(C)C(=O)NCCCC(C)(C)CO (centres unmarked) [Compound 17, 4-butyl-1-(3-chlorophenyl)-3-(4-fluorophenyl)-N-(5-hydroxy-4,4-dimethylpentyl)-5-methyl-4,5-dihydro-1H-pyrazole-5-carboxamide]",1 to 2,1 to 2,0.25 to 0.5
"CCCCC1C(c2ccc(F)cc2)=NN(c2ccc(F)c(OC)c2)C1(C)C(=O)NCCCC(C)(C)CO (centres unmarked) [Compound 18, 4-butyl-1-(4-fluoro-3-methoxyphenyl)-3-(4-fluorophenyl)-N-(5-hydroxy-4,4-dimethylpentyl)-5-methyl-4,5-dihydro-1H-pyrazole-5-carboxamide]",> 2,> 2,> 2
"CCCCC1C(c2ccc(F)cc2)=NN(c2ccc(F)c(OC)c2)C1(C)C(=O)NCCCOC (centres unmarked) [Compound 19, 4-butyl-1-(4-fluoro-3-methoxyphenyl)-3-(4-fluorophenyl)-N-(3-methoxypropyl)-5-methyl-4,5-dihydro-1H-pyrazole-5-carboxamide]",> 2,> 2,> 2
"CC(C)(CO)CCCNC(=O)C1(C)C(c2cccs2)C(c2ccc(F)cc2)=NN1c1ccccc1 (centres unmarked) [Compound 20, 3-(4-fluorophenyl)-N-(5-hydroxy-4,4-dimethylpentyl)-5-methyl-1-phenyl-4-(thiophen-2-yl)-4,5-dihydro-1H-pyrazole-5-carboxamide]",0.5 to 1,0.5 to 1,0.25 to 0.5
"CC(C)(CO)CCCNC(=O)C1(C)C(c2ccncc2)C(c2ccc(F)cc2)=NN1c1ccccc1 (centres unmarked) [Compound 21, 3-(4-fluorophenyl)-N-(5-hydroxy-4,4-dimethylpentyl)-5-methyl-1-phenyl-4-(pyridin-4-yl)-4,5-dihydro-1H-pyrazole-5-carboxamide]",> 2,> 2,> 2
"CCCCC1C(c2ccc(F)cc2)=NN(c2ccc(F)cc2Cl)C1(C)C(=O)NCCCC(C)(C)CO (centres unmarked) [Compound 22, 4-butyl-1-(2-chloro-4-fluorophenyl)-3-(4-fluorophenyl)-N-(5-hydroxy-4,4-dimethylpentyl)-5-methyl-4,5-dihydro-1H-pyrazole-5-carboxamide]",> 2,> 2,> 2
"Cn1cccc1C1C(c2ccc(F)cc2)=NN(c2ccc(F)cc2F)C1(C)C(=O)NCCCC(C)(C)CO (centres unmarked) [Compound 93, 1-(2,4-difluorophenyl)-3-(4-fluorophenyl)-N-(5-hydroxy-4,4-dimethylpentyl)-5-methyl-4-(1-methyl-1H-pyrrol-2-yl)-4,5-dihydro-1H-pyrazole-5-carboxamide]",–,> 2,> 2
"COCCNC(=O)C1(C)C(c2cccn2C)C(c2ccc(F)cc2)=NN1c1ccc(F)cc1F (centres unmarked) [Compound 94, 1-(2,4-difluorophenyl)-3-(4-fluorophenyl)-N-(2-methoxyethyl)-5-methyl-4-(1-methyl-1H-pyrrol-2-yl)-4,5-dihydro-1H-pyrazole-5-carboxamide]",–,> 2,> 2
"Cn1cc(C2C(c3ccc(F)cc3)=NN(c3ccc(F)cc3F)C2(C)C(=O)NCCCC(C)(C)CO)cn1 (centres unmarked) [Compound 95, 1-(2,4-difluorophenyl)-3-(4-fluorophenyl)-N-(5-hydroxy-4,4-dimethylpentyl)-5-methyl-4-(1-methyl-1H-pyrazol-4-yl)-4,5-dihydro-1H-pyrazole-5-carboxamide]",–,> 2,> 2
"COCCNC(=O)C1(C)C(c2cnn(C)c2)C(c2ccc(F)cc2)=NN1c1ccc(F)cc1F (centres unmarked) [Compound 96, 1-(2,4-difluorophenyl)-3-(4-fluorophenyl)-N-(2-methoxyethyl)-5-methyl-4-(1-methyl-1H-pyrazol-4-yl)-4,5-dihydro-1H-pyrazole-5-carboxamide]",–,> 2,> 2
